In US20250145665A1, “MACROCYCLIC PEPTIDES USEFUL AS MODULATORS OF TNF ALPHA” (Bristol-Myers Squibb Company, priority 2023, published 2025):
Positions of bridges follow the written chain, without caps; N, C: chain ends. Non-standard residues stand in square brackets, D forms with d. Residues, ends and D or L forms follow the SMILES beside them. ξ: configuration not given here. Bip(4'-NHCO-C6H4-4-CH2COOH) = N[C@@H](Cc1ccc(-c2ccc(NC(=O)c3ccc(CC(=O)O)cc3)cc2)cc1)C(=O)O; Bip(4'-NHAc) = CC(=O)Nc1ccc(-c2ccc(C[C@H](N)C(=O)O)cc2)cc1; Ala(imidazol-2-yl) = N[C@@H](Cc1ncc[nH]1)C(=O)O; Ala(morpholin-4-yl) = N[C@@H](CN1CCOCC1)C(=O)O; Bip = N[C@@H](Cc1ccc(-c2ccccc2)cc1)C(=O)O; Ala(2-furyl) = N[C@@H](Cc1ccco1)C(=O)O; 2Thi = N[C@@H](Cc1cccs1)C(=O)O; Cha = N[C@@H](CC1CCCCC1)C(=O)O; Tle = CC(C)(C)[C@H](N)C(=O)O; ξAze = O=C(O)C1CCN1; Sar = CNCC(=O)O

Target: TNFα (Homo sapiens, UniProt P01375)
Experiment: TNF-Induced HEK-Blue Assay
Type: cell-based
Conditions: HEK-Blue-CD40L cells, NF-kB-driven secreted alkaline phosphatase reporter; TNFα 0.5 ng/ml; 18 h; read-out: TNF induced HEK-Blue assay IC50 value

Sequence of TNFα (P01375 77-233 limits assumed): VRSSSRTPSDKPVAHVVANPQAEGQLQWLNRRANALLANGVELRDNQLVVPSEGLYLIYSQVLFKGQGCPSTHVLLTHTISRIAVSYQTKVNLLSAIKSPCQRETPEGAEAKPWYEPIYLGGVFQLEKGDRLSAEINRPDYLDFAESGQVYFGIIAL

IC50 [nM]	SMILES
< 50	CC(=O)Nc1ccc(-c2ccc(C[C@@H]3NC(=O)[C@H](Cc4ccc(-c5ccccc5)cc4)NC(=O)[C@H](CC4CCCCC4)NC(=O)CSC[C@@H](C(=O)NCC(N)=O)NC(=O)[C@H](CC(C)C)NC(=O)[C@H](Cc4ncc[nH]4)NC(=O)[C@H](C(C)C)NC(=O)C4CCN4C(=O)[C@H](C(C)C)NC(=O)[C@@H](CCCNC(=N)N)NC(=O)[C@H](CC(=O)O)NC(=O)[C@@H]4CCCN4C(=O)CN(C)C3=O)cc2)cc1 (stereo partly drawn) [Example 466] ({CH2CO}-[Cha][Bip][Bip(4'-NHAc)][Sar]PD[dR]V[ξAze]V[Ala(imidazol-2-yl)]LCG-NH2; thioether N-13)
< 50	CC[C@H](C)[C@@H]1NC(=O)[C@@H]2CCCN2C(=O)[C@H]([C@@H](C)CC)NC(=O)[C@@H](CCCNC(=N)N)NC(=O)[C@H](CC(=O)O)NC(=O)[C@H](Cc2ccc(O)cc2)NC(=O)CN(C)C(=O)[C@H](Cc2ccc(-c3ccc(NC(C)=O)cc3)cc2)NC(=O)[C@H](Cc2ccc(-c3ccccc3)cc2)NC(=O)[C@H](CN2CCOCC2)NC(=O)CSC[C@@H](C(=O)NCC(N)=O)NC(=O)[C@H](CC(C)C)NC(=O)[C@H](Cc2cccs2)NC1=O [Example 293] ({CH2CO}-[Ala(morpholin-4-yl)][Bip][Bip(4'-NHAc)][Sar]YD[dR]IPI[2Thi]LCG-NH2; thioether N-13)
200 to 2000	CC(C)C[C@@H]1NC(=O)[C@H](Cc2ccc(O)cc2)NC(=O)[C@H](C(C)C)NC(=O)[C@@H]2CCCN2C(=O)[C@H](C(C)C)NC(=O)[C@@H](CCCNC(=N)N)NC(=O)[C@H](CC(=O)O)NC(=O)[C@@H]2CCCN2C(=O)CNC(=O)[C@H](Cc2ccc(-c3ccccc3)cc2)NC(=O)[C@H](Cc2ccc(-c3ccccc3)cc2)NC(=O)[C@H](CN2CCOCC2)NC(=O)CSC[C@@H](C(=O)NCC(N)=O)NC1=O [Example 129] ({CH2CO}-[Ala(morpholin-4-yl)][Bip][Bip]GPD[dR]VPVYLCG-NH2; thioether N-13)
50 to 200	CC[C@H](C)[C@@H]1NC(=O)[C@@H]2CCCN2C(=O)[C@H]([C@@H](C)CC)NC(=O)[C@@H](CCCNC(=N)N)NC(=O)[C@H](CC(=O)O)NC(=O)[C@H](Cc2ccco2)NC(=O)CN(C)C(=O)[C@H](Cc2ccc(-c3ccc(NC(C)=O)cc3)cc2)NC(=O)[C@H](Cc2ccc(-c3ccccc3)cc2)NC(=O)[C@H](C(C)(C)C)NC(=O)CSC[C@@H](C(=O)NCC(N)=O)NC(=O)[C@H](CC(C)C)NC(=O)[C@H](Cc2ccc(O)cc2)NC1=O [Example 298] ({CH2CO}-[Tle][Bip][Bip(4'-NHAc)][Sar][Ala(2-furyl)]D[dR]IPIYLCG-NH2; thioether N-13)
50 to 200	CC(C)C[C@@H]1NC(=O)[C@H](CCCNC(=N)N)NC(=O)[C@H](C(C)C)NC(=O)[C@@H]2CCCN2C(=O)[C@H](C(C)C)NC(=O)[C@H](CCCNC(=N)N)NC(=O)[C@H](CC(=O)O)NC(=O)[C@H](Cc2ccc(O)cc2)NC(=O)CN(C)C(=O)[C@H](Cc2ccc(-c3ccccc3)cc2)NC(=O)[C@H](Cc2ccc(-c3ccccc3)cc2)NC(=O)[C@H](CN2CCOCC2)NC(=O)CSC[C@@H](C(=O)NCC(N)=O)NC1=O [Example 47] ({CH2CO}-[Ala(morpholin-4-yl)][Bip][Bip][Sar]YDRVPVRLCG-NH2; thioether N-13)
< 50	CC(C)C[C@@H]1NC(=O)[C@H](Cc2cnc[nH]2)NC(=O)[C@H](C(C)C)NC(=O)[C@@H]2CCCN2C(=O)[C@H](C(C)C)NC(=O)[C@@H](CCCNC(=N)N)NC(=O)[C@H](CC(=O)O)NC(=O)[C@H](Cc2cnc[nH]2)NC(=O)CN(C)C(=O)[C@H](Cc2ccc(-c3ccc(NC(=O)c4ccc(CC(=O)O)cc4)cc3)cc2)NC(=O)[C@H](Cc2ccc(-c3ccccc3)cc2)NC(=O)[C@H](CC2CCCCC2)NC(=O)CSC[C@@H](C(=O)NCC(N)=O)NC1=O [Example 526] ({CH2CO}-[Cha][Bip][Bip(4'-NHCO-C6H4-4-CH2COOH)][Sar]HD[dR]VPVHLCG-NH2; thioether N-13)
